{"source": "EPA's ToxRefDB 2", "key": {"[1]": {"system": "dog", "conditions": "Subchronic oral toxicity in nonrodent, beagle, Feed, dose end: 13 week, group: systemic"}, "[2]": {"system": "rat", "conditions": "Prenatal developmental toxicity study, sprague dawley, Oral, Gavage/Intubation, dose end: 15 GD"}, "[3]": {"system": "rat", "conditions": "Combined chronic toxicity/carcinogenicity; sprague dawley; Oral; Feed; dose end: 2 year; group: systemic; systemic / in life observation / body weight / body weight gain"}, "[4]": {"system": "dog", "conditions": "Chronic toxicity; beagle; Oral; Feed; dose end: 52 week; group: systemic; systemic / pathology gross / heart / discolored + systemic / pathology gross / heart / distended + systemic / pathology gross / heart / …"}, "[5]": {"system": "mouse", "conditions": "Carcinogenicity, cd1, Oral, Feed, dose end: 91 week, group: systemic"}, "[6]": {"system": "dog", "conditions": "Chronic toxicity; beagle; Oral; Feed; dose end: 52 week; group: systemic; systemic / in life observation / clinical signs / [other] + systemic / in life observation / clinical signs / tachycardia + systemic / …"}, "[7]": {"system": "rat", "conditions": "Subchronic oral toxicity in rodents, other, Feed, dose end: 92 day, group: systemic"}, "[8]": {"system": "rat", "conditions": "Combined chronic toxicity/carcinogenicity, sprague dawley, Oral, Feed, dose end: 104 week, group: systemic"}, "[9]": {"system": "rat", "conditions": "Subchronic oral toxicity in rodents, Tif: RAIf (SPF), Feed, dose end: 13 week, group: systemic, systemic / in life observation / body weight / body weight + systemic / in life observation / body weight / body weight gain + systemic / …"}, "[10]": {"system": "rabbit", "conditions": "Prenatal developmental toxicity study, new zealand white, Oral, Gavage/Intubation, dose end: 19 GD"}, "[11]": {"system": "rabbit", "conditions": "Prenatal developmental toxicity study, new zealand white, Oral, Gavage/Intubation, dose end: 19 GD", "remark": "listed apart in the source"}, "[12]": {"system": "mouse", "conditions": "Carcinogenicity; b6c3f1; Oral; Feed; dose end: 24 month; group: systemic; systemic / in life observation / body weight / body weight gain"}, "[13]": {"system": "mouse", "conditions": "Carcinogenicity, b6c3f1, Oral, Feed, dose end: 78 week, group: systemic"}, "[14]": {"system": "rat", "conditions": "Carcinogenicity, other, Oral, Feed, dose end: 78 week, group: systemic"}, "[15]": {"conditions": "systemic / pathology microscopic / kidney / basophilia + systemic / pathology microscopic / kidney / hyperplasia + systemic / hematology / …"}, "[16]": {"conditions": "group: developmental, developmental / developmental malformation / bone / incomplete ossification"}, "[17]": {"conditions": "group: maternal, reproductive / reproductive performance / aborted / aborted + systemic / in life observation / body weight / body weight gain + systemic / …"}, "[18]": {"conditions": "systemic / in life observation / body weight / body weight gain + systemic / hematology / erythrocyte (rbc) count differential / erythrocyte…"}, "[19]": {"conditions": "systemic / hematology / leukocyte (wbc) count differential / leukocyte (wbc)"}, "[20]": {"conditions": "systemic / in life observation / body weight / body weight gain + systemic / in life observation / food consumption / food consumption + …"}, "[21]": {"conditions": "group: developmental, developmental / developmental malformation / bone / delayed ossification"}, "[22]": {"conditions": "group: maternal, reproductive / reproductive performance / resorptions / resorptions + systemic / in life observation / clinical signs / discharge on …"}, "[23]": {"conditions": "group: maternal, reproductive / reproductive performance / resorptions / resorptions + systemic / in life observation / body weight / body weight + systemic…"}, "[24]": {"conditions": "systemic / in life observation / body weight / body weight"}, "[25]": {"conditions": "systemic / in life observation / body weight / body weight + systemic / pathology microscopic / liver / carcinoma + systemic / in life …"}, "[26]": {"conditions": "systemic / in life observation / body weight / body weight + systemic / pathology microscopic / testes / atrophy"}, "[27]": {"conditions": "systemic / pathology microscopic / adrenal gland / adenoma + systemic / in life observation / body weight / body weight + systemic / in life…"}}}
{"molecule": "CCNc1nc(Cl)nc(NC(C)C)n1", "note": "[Atrazine]", "values": [{"measurement": "LOAEL", "setting": "[1]; systemic / pathology microscopic / kidney / basophilia + systemic / pathology microscopic / kidney / hyperplasia", "value": 28.9, "unit": "mg/kg/day"}, {"measurement": "LEL", "setting": "[1]; [15]", "value": 28.9, "unit": "mg/kg/day"}, {"measurement": "NEL", "setting": "[1]; [15]", "value": 3.71, "unit": "mg/kg/day"}, {"measurement": "NOAEL", "setting": "[1]; [15]", "value": 3.71, "unit": "mg/kg/day"}, {"measurement": "LEL", "setting": "[2]; [16]", "value": 5, "unit": "mg/kg/day"}, {"measurement": "LOAEL", "setting": "[2]; [16]", "value": 100, "unit": "mg/kg/day"}, {"measurement": "NEL", "setting": "[2]; [16]", "value": "< 5", "unit": "mg/kg/day"}, {"measurement": "NOAEL", "setting": "[2]; [16]", "value": 25, "unit": "mg/kg/day"}, {"measurement": "LEL", "setting": "[2]; group: maternal, reproductive / reproductive performance / aborted / aborted", "value": 25, "unit": "mg/kg/day"}, {"measurement": "NEL", "setting": "[2]; [17]", "value": 5, "unit": "mg/kg/day"}, {"measurement": "NOAEL", "setting": "[2]; [17]", "value": 25, "unit": "mg/kg/day"}, {"measurement": "LOAEL", "setting": "[2]; group: maternal, systemic / in life observation / body weight / body weight gain + systemic / in life observation / food consumption / food consumption", "value": 100, "unit": "mg/kg/day"}, {"measurement": "LEL", "setting": "[3]", "value": 25, "unit": "mg/kg/day"}, {"measurement": "LOAEL", "setting": "[3]", "value": 25, "unit": "mg/kg/day"}, {"measurement": "NEL", "setting": "[3]", "value": 3.5, "unit": "mg/kg/day"}, {"measurement": "NOAEL", "setting": "[3]", "value": 3.5, "unit": "mg/kg/day"}, {"measurement": "LEL", "setting": "[4]", "value": 24.1, "unit": "mg/kg/day"}, {"measurement": "LOAEL", "setting": "[4]", "value": 24.1, "unit": "mg/kg/day"}, {"measurement": "NEL", "setting": "[4]", "value": 3.61, "unit": "mg/kg/day"}, {"measurement": "NOAEL", "setting": "[4]", "value": 3.61, "unit": "mg/kg/day"}, {"measurement": "LOAEL", "setting": "[5]; systemic / in life observation / body weight / body weight gain", "value": 194, "unit": "mg/kg/day"}, {"measurement": "LEL", "setting": "[5]; [18]", "value": 194, "unit": "mg/kg/day"}, {"measurement": "NEL", "setting": "[5]; [18]", "value": 38.4, "unit": "mg/kg/day"}, {"measurement": "NOAEL", "setting": "[5]; [18]", "value": 38.4, "unit": "mg/kg/day"}, {"measurement": "LEL", "setting": "[6]", "value": 33.6, "unit": "mg/kg/day"}, {"measurement": "LOAEL", "setting": "[6]", "value": 33.6, "unit": "mg/kg/day"}, {"measurement": "NEL", "setting": "[6]", "value": 4.97, "unit": "mg/kg/day"}, {"measurement": "NOAEL", "setting": "[6]", "value": 4.97, "unit": "mg/kg/day"}, {"measurement": "LEL", "setting": "[7]; [19]", "value": 0.659, "unit": "mg/kg/day"}, {"measurement": "NEL", "setting": "[7]; [19]", "value": "< 0.659", "unit": "mg/kg/day"}, {"measurement": "LOAEL", "setting": "[7]; systemic / in life observation / body weight / body weight + systemic / in life observation / body weight / body weight gain", "value": 34, "unit": "mg/kg/day"}, {"measurement": "NOAEL", "setting": "[7]; systemic / in life observation / body weight / body weight + systemic / in life observation / body weight / body weight gain + systemic / …", "value": 3.3, "unit": "mg/kg/day"}, {"measurement": "LOAEL", "setting": "[8]; systemic / in life observation / body weight / body weight gain + systemic / in life observation / food consumption / food consumption", "value": 25, "unit": "mg/kg/day"}, {"measurement": "NEL", "setting": "[8]; [20]", "value": 0.5, "unit": "mg/kg/day"}, {"measurement": "NOAEL", "setting": "[8]; [20]", "value": 3.5, "unit": "mg/kg/day"}, {"measurement": "LEL", "setting": "[8]; systemic / pathology microscopic / mammary gland / adenocarcinoma", "value": 3.5, "unit": "mg/kg/day"}, {"measurement": "LEL", "setting": "[9]", "value": 34.9, "unit": "mg/kg/day"}, {"measurement": "LOAEL", "setting": "[9]", "value": 34.9, "unit": "mg/kg/day"}, {"measurement": "NEL", "setting": "[9]", "value": 3.2, "unit": "mg/kg/day"}, {"measurement": "NOAEL", "setting": "[9]", "value": 3.2, "unit": "mg/kg/day"}, {"measurement": "LEL", "setting": "[10]; [21]", "value": 75, "unit": "mg/kg/day"}, {"measurement": "LOAEL", "setting": "[10]; [21]", "value": 75, "unit": "mg/kg/day"}, {"measurement": "NEL", "setting": "[10]; [21]", "value": 5, "unit": "mg/kg/day"}, {"measurement": "NOAEL", "setting": "[10]; [21]", "value": 5, "unit": "mg/kg/day"}, {"measurement": "LEL", "setting": "[10]; [22]", "value": 75, "unit": "mg/kg/day"}, {"measurement": "LOAEL", "setting": "[10]; [22]", "value": 75, "unit": "mg/kg/day"}, {"measurement": "NEL", "setting": "[10]; [22]", "value": 5, "unit": "mg/kg/day"}, {"measurement": "NOAEL", "setting": "[10]; [22]", "value": 5, "unit": "mg/kg/day"}, {"measurement": "LEL", "setting": "[11]; [21]", "value": 75, "unit": "mg/kg/day"}, {"measurement": "LOAEL", "setting": "[11]; [21]", "value": 75, "unit": "mg/kg/day"}, {"measurement": "NEL", "setting": "[11]; [21]", "value": 5, "unit": "mg/kg/day"}, {"measurement": "NOAEL", "setting": "[11]; [21]", "value": 5, "unit": "mg/kg/day"}, {"measurement": "LEL", "setting": "[11]; [23]", "value": 75, "unit": "mg/kg/day"}, {"measurement": "LOAEL", "setting": "[11]; [23]", "value": 75, "unit": "mg/kg/day"}, {"measurement": "NEL", "setting": "[11]; [23]", "value": 5, "unit": "mg/kg/day"}, {"measurement": "NOAEL", "setting": "[11]; [23]", "value": 5, "unit": "mg/kg/day"}]}
{"molecule": "Cc1c(C(=O)O)c(O)cc2c1C(=O)c1c(O)c([C@@H]3O[C@H](CO)[C@@H](O)[C@H](O)[C@H]3O)c(O)c(O)c1C2=O", "note": "[Carminic acid]", "values": [{"measurement": "LEL", "setting": "[12]", "value": 4500, "unit": "mg/kg/day"}, {"measurement": "LOAEL", "setting": "[12]", "value": "> 9000", "unit": "mg/kg/day"}, {"measurement": "NEL", "setting": "[12]", "value": "< 4500", "unit": "mg/kg/day"}, {"measurement": "NOAEL", "setting": "[12]", "value": "≥ 9000", "unit": "mg/kg/day"}]}
{"molecule": "CCOC(=O)C(O)(c1ccc(Cl)cc1)c1ccc(Cl)cc1", "note": "[Chlorobenzilate]", "values": [{"measurement": "LOAEL", "setting": "[13]; [24]", "value": 480, "unit": "mg/kg/day"}, {"measurement": "NOAEL", "setting": "[13]; [24]", "value": "< 480", "unit": "mg/kg/day"}, {"measurement": "LEL", "setting": "[13]; [25]", "value": 480, "unit": "mg/kg/day"}, {"measurement": "NEL", "setting": "[13]; [25]", "value": "< 480", "unit": "mg/kg/day"}, {"measurement": "LOAEL", "setting": "[14]; [26]", "value": 80, "unit": "mg/kg/day"}, {"measurement": "NOAEL", "setting": "[14]; [26]", "value": "< 80", "unit": "mg/kg/day"}, {"measurement": "LEL", "setting": "[14]; [27]", "value": 58.8, "unit": "mg/kg/day"}, {"measurement": "NEL", "setting": "[14]; [27]", "value": "< 58.8", "unit": "mg/kg/day"}]}
